Several values for one entry are separate records, joined by “and”; a condition that tells them apart may be missing. Equal entries are not always repeated. Entries after “also recorded” stand apart in the source; their conditions may differ. Where no end group is shown, it is not given here.

Experiment [1] relates to hNav1.5 protein fragments centered on 558 fused to YFP. The experiment can be described thus: FRET between hNav1.5 protein fragments centered on 558 fused to CFP or YFP. The experiment is classed as cell-based, human. The settings on record: coexpressed with homotypic YFP fragment. The text has this:
(§1) The beam splitter was the Chroma 86002v2bs multiband beam splitter for ECFP and EYFP (Rockingham, Vt.).
(§2) The corrected FRET ratio was defined as FRETc/IDD.

The target of experiment [2] is T1, hNav1.5 protein fragments centered on 558 fused to YFP (Homo sapiens, UniProt Q14524).
T1 construct: Fragments centered on 558 (40 amino acids) were fused to either CFP or YFP; expressed in transfected cells
The description is as above. The experiment is classed as cell-based. The settings on record: coexpressed with heterotypic H558-YFPf, internalized compartments.
From the text: as §1, §2

Experiment [3] concerns YFP-1022. In words: FRET folding study of non-mutated channel construct in HEK293 cells. The experiment is classed as cell-based, human. Conditions: non-mutated YFP-1022 co-expressed with peptide.
From the text: Image Analysis and Calculation of Fluorescence Resonance Energy Transfer Ratios: Images were acquired with and Olympus IX71 fluorescent microscope that was fitted with a Hamamatsu ORCA-ER charge coupled device (12 bit) and controlled by the SLIDEBOOK software package from Intelligent Imaging Innovations (Denver, Colo.). Filter cube specifications for the fluorescent channels were as follows for excitation and emission, respectively: enhanced cyan fluorescent protein (CFP), 430±25 and 470±30 nm; enhanced yellow fluorescent protein (YFP), 500±20 and 535±30 nm, and fluorescence resonance energy transfer (FRET), 430±25 and 535±30 nm.
Image analysis involved three basic operations: subtraction of background autofluorescence and blurred light, quantification of fluorescence intensity, and calculation of a corrected FRET (FRETc) using the following equation: FRETc=(IDA−aIAA−dIDD)/IDD,
Where IDA is the fluorescence intensity of the cell measured from the FRET filter set and IDD and IAA are the fluorescent intensities of the same cell measured from the CFP (donor) and YFP (acceptor) filter sets, respectively. The cross-talk coefficients, a and d, are considered constant and a property of our microscope's filter sets, with a=0.03 and d=0.63. The corrected FRET ratio (FRETc) includes normalization to IDD to correct for variances in protein expression from cell to cell. […]
Experiment [4] concerns the target T2, WT channels (Nav1.5) (Homo sapiens, UniProt Q14524).
T2 construct: expressed in transfected cells; host or cells: HEK293
In words: Whole cell patch clamp of sodium currents in HEK293 cells co-expressing WT channels and polymorphic peptide. The experiment is classed as cell-based. The text has this: Creation of Channel Fragments: Channel fragments were created by amplifying a small piece of either the wild type or the H558R polymorphic channel. These pieces were ligated into either the pcDNA3 vector or the pECFP-N3 vector (BD Biosciences Clonetech). The sequences for the fragments are: Wild Type 20 amino acid-[…] (SEQ ID NO: 10), Polymorphic 40 amino acid-[…] (SEQ ID NO: 4), and polymorphic 20 amino acid-[…] (SEQ ID NO: 3).
Expression of Nav1.5 and Fragments in HEK293 Cells: Transient transfection of Nav1.5 and Nav1.5 fragments into human embryonic kidney (HEK293) cells was accomplished using the Polyfect transfection kit (Qiagen, Valencia, Calif.) according to the manufacturer's protocol for 24 hours. When channels were expressed alone, […] of channel cDNA was used. For co-transfections, 1 μg of channel cDNA and 1 μg of fragment cDNA were combined.
Electrophysiology: Macroscopic sodium currents from transfected cells were recorded using the whole cell configuration of the patch clamp technique as previously described (Deschenes, I., et al., 2000 Cardiovasc. Res. 46: 55-65). Cells that emitted green fluorescence were considered successfully transfected. Patch electrodes were made from 1.5 mm thin walled glass capillaries (World Precision Instruments, Sarasota, Fla.). Low resistance electrodes (<2MΩ) were used, and a routine series resistance compensation of an Axopatch 200A was preformed to values >80% to minimize voltage clamp errors. Voltage clamp command pulses were generated by a microcomputer using PCLAMP software version 9.02 (Axon Instruments, Foster City, Calif.). To allow currents to stabilize, experiments were performed 10 minutes after entering whole cell configuration. Membrane currents were filtered at 5 kHZ and digitized with 12-bit resolution. The internal solution contained (in mmol/L) NaCl 35, CsF 105, EGTA 10, and Cs-HEPES 10 adjusted to pH7.4. […]
Whole cell sodium current densities were measured by dividing the peak current obtained from stepping in 10 mV intervals from −80 to 30 mV from the holding potential of −120 mV by the cell capacitance. Cell capacitance was determined by integrating the area under the capacitive transient of a pulse from −80 mV to −70 mV. […]
Voltage dependence of steady state inactivation was determined by 500 ms prepulses ranging from −140 to −30 mV (FIG. 7B inset). […]
Conductance was calculated from peak current obtained by holding the resting membrane potential at −120 mV and stepping in 10 mV intervals from −80 mV to 20 mV according to the equation: G=I/(Vm−Vrec)
The conductance was also fit to a Boltzmann distribution. Time constant of inactivation was measured by fitting individual current traces from the peak current to the end of the pulse with a single exponential: I(t)=A*exp(−t/τ)

Experiment [5] concerns the target T3, H558R-SCN5A+R282H-C373Y-SCN5A channels (Homo sapiens, UniProt Q14524, H558R).
T3 construct: expressed in transfected cells; host or cells: HEK293
In words: MTSET block of whole-cell sodium current, H558R-SCN5A+R282H-C373Y-SCN5A. In kind it is cell-based. Conditions: 1 μmol/L MTSET, after 10 minutes, 1 μg + 1 μg, HEK293. On the procedure:
(§3) Expression of hNav1.5 in HEK293 Cells: Transient transfections of SCN5A expressed in GFP-IRES were performed in human embryonic kidney cells (HEK293) with the Polyfect transfection kit (Qiagen, Valencia, Calif.) according to the manufacturer's protocol for 24 hours.
(§4) Electrophysiology: Macroscopic sodium currents from transfected cells were recorded using the whole-cell configuration of the patch-clamp technique as previously described. (Deschenes I, et al., Cardiovasc Res. 2000; 46:55-65). Cells that emitted green fluorescence and expressed INa-like currents were considered to express mutants and/or polymorphisms of hNav1.5. Patch electrodes were made from 8161 Corning glass (Dow-Corning, Midland, Mich.). Low-resistance electrodes (<2 MΩ) were used, and a routine-series resistance compensation of an Axopatch 200A was performed to values >80% to minimize the voltage-clamp errors. Voltage-clamp command pulses were generated by a microcomputer using PCLAMP software version 9.02 (Axon Instruments, Foster City, Calif.). To stabilize the current, experiments were performed 10 minutes after entering whole-cell configuration. Membrane currents were filtered at 5 kHz and digitized with 12-bit resolution. […]
(§5) Voltage dependence of steady-state inactivation was determined by 500-ms prepulses ranging from −140 to −30 mV. […]

The test system of experiment [6] is WT-SCN5A+C373Y-SCN5A channels. The experiment is classed as cell-based, human. How it is done: as §3, §4, §5
Experiment [7] addresses T4, C373Y-SCN5A channels (Homo sapiens, UniProt Q14524, C373Y).
T4 construct: expressed in transfected cells; host or cells: HEK293
The experiment is classed as cell-based. On the procedure: as §3, §4, §5

The mark [8] stands for this setting: WT channels treated with polymorphic peptide, HEK293.

With “R558-CFPf: hNav1.5 fragment centered on 558 (40 amino acids) with R558, fused to CFP (GSEADFADDENSTAGESESHRTSLLVPWPLRRTSAQGQPS; also: fused to CFP (carrier left off))”, the FRETc in experiment [1] is listed as 0.01±0.01; in experiment [2] it was 0.04±0.02.
Regarding “GSEADFADDENSTAGESESHRTSLLVPWPLRRTSAQGQPS [R558-40aa, 40 amino acid fragment of Nav1.5 containing the H558R polymorphism, expressed from cDNA]”, in experiment [3], the “FRETc compared with YFP-1022 alone” value is given as “similar”. In experiment [4] (HEK293 cells, WT channels co-expressed with the 40 amino acid fragment, WT alone −337.7±105.8), the current density is −474.1±125.9 pA/pF. Moreover, in experiment [4] (setting [8]), the “Conductance (V1/2)” value is −40.2 ± 3.3 mV and the “Steady State Inactivation (V1/2)” value was −90.0 ± 1.6 mV. The “Time Constant of Inactivation compared to WT” value in experiment [4] (WT channels with peptide, FIG. 7D) is given as “behaved similarly to WT”.
With “NSTAGESESHRTSLLVPWPL [R558-20aa, 20 amino acid fragment of Nav1.5 containing the H558R polymorphism, expressed from cDNA]”, in experiment [3], the “FRETc compared with YFP-1022 alone” value was “similar”.
Take “H558-CFPf: hNav1.5 fragment centered on 558 (40 amino acids) with H558, fused to CFP (GSEADFADDENSTAGESESHHTSLLVPWPLRRTSAQGQPS; also: fused to CFP (carrier left off))”: the FRETc in experiment [1] was found to be 0.01±0.01.
Consider `C[N+](C)(C)CCSS(C)(=O)=O.[Br-]` [MTSET, [2-(trimethylammonium)ethyl]methanethiosulfonate bromide], for which the “reduction of whole-cell sodium current” value in experiment [5] is 48.1±10.0% and 50%. Also, in experiment [6], the “decrease of whole-cell sodium current” value is 42.6±9.5% and 50%. The “decrease of peak current density” value in experiment [7] was “does not significantly decrease peak current densities; also recorded: does not block”.
